Literature values in patent publication US20260301880A1, “NOSE-TO-BRAIN PHYSIOLOGICALLY BASED PHARMACOKINETIC MODEL” (APTARGROUP INC., priority 2023, published 2026).

Legend:
[1] = healthy volunteers
[2] = not given; remark: listed apart in the source
[3] = clinical
[4] = humans
[5] = literature value, porcine nasal mucosa
[6] = octanol/water
[7] = not given; remark: listed apart in the source

| Structure (SMILES) | oral bioavailability [1] | R - Blood/plasma ratio | fu - fraction unbound in blood plasma [2] | reported nasal bioavailability [3] [%] | PbAb - Permeability-surface area product between brain blood and brain mass [4] [L/h] | P - Permeability in the nasal epithelium [5] | LogP [6] | pKa (acid) ([7]; acid) | pKa (base) ([7]; base) |
| --- | --- | --- | --- | --- | --- | --- | --- | --- | --- |
| CNS(=O)(=O)Cc1ccc2[nH]cc(CCN(C)C)c2c1 [sumatriptan] | low | 1 | 0.63 | 16 | – | – | – | – | – |
| CC(=O)Nc1ccc(O)cc1 [paracetamol] | – | – | – | – | 1.875 | – | – | – | – |
| CN1C[C@H](C(=O)N[C@]2(C)O[C@@]3(O)[C@@H]4CCCN4C(=O)[C@H](Cc4ccccc4)N3C2=O)C[C@@H]2c3cccc4[nH]cc(c34)C[C@H]21 [DHE, dihydroergotamine] | – | – | 0.03 | – | – | 1.48 × 10^−7 | 2 | 9.71 | 8.39 |
